Consider five molecules from patent US20050048563A1, “Membrane molecule indicator compositions and methods” (Novasite Pharmaceuticals, Inc, priority 2000, published 2005).

Test [1] concerns adrenal glomerulosa cells. In words: Confocal PLCδ1PH-GFP translocation in adrenal glomerulosa cells. Particulars: angiotensin II stimulation, 2 mM Sr^2+ or Ca^2+. It counts as cell-based, bovine.
The next test deals with PLC. It counts as cell-based, mouse.

As to “angiotensin II (DRVYIHPF; Angiotensin-2; UniProt P01019 25-32, looked up)”, in test [1], the “translocation of PLCδ1PH-GFP in presence of Sr^2+ versus Ca^2+” value is recorded as “not significantly different”. As for `NCCc1c[nH]cn1` [histamine], in the test with PLC, the “duration of translocation response” value is at least 15 min and the “translocation amplitude relative to BK response control / BK-induced peak values” is reported as 40%.

Consider neurokinin A [NKA], for which, in the test with PLC, the “desensitization of PLC activation on repeated NKA pulses” value is listed as “incremental partial homologous desensitization”; the “translocation of the probe (PLC activation profile)” value was “fast and near-complete translocation”. In the case of `CCCCCCCC/C=C\CCCCCCCC(=O)OCC(O)COP(=O)(O)O` (centres unmarked) [LPA, 1-oleoyl LPA], the “translocation amplitude relative to BK response control / BK-induced peak values” in the test with PLC was 25%. As for aluminum fluoride [A1F^4−], in the test with PLC, the “desensitization of PLC activation” value is reported as “no desensitization” and the “onset of PLC activation” value is reported as “slow”.
